Test results published in US12391919B2, “Culture medium, coating matrix and method for maturing midbrain dopaminergic progenitor cells” (NUWACELL BIOTECHNOLOGIES CO., LTD., priority 2022, dated 2025).

B1: VTN: vitronectin, first coating matrix that supports cell adhesion (protein, UniProt P04004 20-478, looked up)
Vitronectin: DQESCKGRCTEGFNVDKKCQCDELCSYYQSCCTDYTAECKPQVTRGDVFTMPEDEYTVYDDGEEKNNATVHEQVGGPSLTSDLQAQSKGNPEQTPVLKPEEEAPAPEVGASKPEGIDSRPETLHPGRPQPPAEEELCSGKPFDAFTDLKNGSLFAFRGQYCYELDEKAVRPGYPKLIRDVWGIEGPIDAAFTRINCQGKTYLFKGSQYWRFEDGVLDPDYPRNISDGFDGIPDNVDAALALPAHSYSGRERVYFFKGKQYWEYQFQHQPSQEECEGSSLSAVFEHFAMMQRDSWEDIFELLFWGRTSAGTRQPQFISRDWHGVPGQVDAAMAGRIYISGMAPRPSLAKKQRFRHRNRKGYRSQRGHSRGRNQNSRRPSRATWLSLFSSEESNLGANNYDDYRMDWLVPATCEPIQSVFFFSGDKYYRVNLRTRRVDTVDPPYPRSIAQYWLGCPAPGHL

Tested on: imDAPs
Assay: imDAP expansion: cell morphology, cell number (Vi-cell cytometer), expansion fold, Population Doubling Time
Assay type: cell-based, human
Conditions: for attachment and morphology of imDAPs on the coated surface: Example 8, coating 1 μg/cm^2, day 4, FIG. 4A
Experimental: imDAPs were produced according to the method described in CN201910169525.0. The imDAPs (P0) were seeded on VTN-coated plates (1 μg/cm^2) at a density of 1×10^5 cells/cm^2 in the expansion medium (50% DMEM/F12, 50% Neurobasal™ medium, 1% (v/v) Glutamax, 2% (v/v) B27 (50×), 0.2 μM LDN193189, 3 μM CHIR99021, 100 ng/mL FGF8b) in the absence or presence of 5 μM Blebbistatin. In case where Blebbistatin is present, Blebbistatin was either removed 24 hrs after plating or present throughout the culture period. The medium was changed every day for 5 days.
imDAPs were produced according to the method described in CN201910169525.0. The imDAPs (P0) were seeded on VTN-coated plates (1 μg/cm^2) at a density of 1×10^5 cells/cm^2 in the expansion medium (50% DMEM/F12, 50% Neurobasal™ medium, 1% (v/v) Glutamax, 2% (v/v) B27 (50×), 3 μM CHIR99021, 100 ng/mL FGF8b, […]) in the absence or presence of 0.2 μM LDN193189. The medium was changed every day for 5 days.
imDAPs were produced according to the method described in CN201910169525.0. The imDAPs (P0) were seeded on VTN-coated plates (1 μg/cm^2) at a density of 1×10^5 cells/cm^2 in the expansion medium (50% DMEM/F12, 50% Neurobasal™ medium, 1% (v/v) Glutamax, 2% (v/v) B27 (50×), 0.2 μM LDN193189, 3 μM CHIR99021, 100 ng/mL FGF8b, 5 μM Blebbistatin). The medium was changed every day. When imDAPs reach 100% confluence (4-5 days), cells were passaged enzymatically with 1× TrypLE, centrifuged at 250 g for 5 minutes, counted and replaced on new VTN-coated plates (1 μg/cm^2) at a density of 1×10^5 cells/cm^2 in the expansion medium. imDAPs were continuously expanded for 6 passages. At each passage, imDAPs were harvested at an expansion fold 5˜10 (over the initial number of imDAPs plated).
imDAPs were produced according to the method described in CN201910169525.0. The imDAPs (P0) were seeded on DLL4-coated ([…]), VTN-coated (1 μg/cm^2) and DLL4/VTN-coated ([…]) plates at a low density of 1×10^4 cells/cm^2 respectively, and cultured in the expansion medium in the absence or presence of 5 µM SB431542. Medium was replaced every 3rd day until reaching 100% confluence (6 days) for cell collection. The typical cell morphology on day 4 was recorded (FIG. 4A). The cell number of each group was counted by Vi-cell cytometer (FIG. 4B). The cells of each group were stained with Foxa2-PE antibody (BD, #561589), the percentage of Foxa2+ imDAPs were analyzed by flow cytometry (FIG. 4C). The expansion medium used in this example contained the following components: 50% DMEM/F12, 50% Neurobasal™ medium, 1% (v/v) Glutamax, 1% (v/v) B27, 50 μg/ml ascorbic acid, 0.2 μM LDN193189, 100 ng/ml FGF8b, 3 μM CHIR99021 and 10 μM Y27632.
imDAPs were produced according to the method described in CN201910169525.0. The imDAPs (P0) were seeded on DLL4/VTN-coated (1 μg/cm^2 for each) plates at a low density of 1×10^4 cells/cm^2, and cultured in the expansion medium (EM1, EM2, EM3, EM4). Medium was replaced every 3rd day until reaching 100% confluence (6 days) for cell collection. EM1 used in Example 9 contained the following components: 50% DMEM/F12, 50% Neurobasal™ medium, 1% (v/v) Glutamax, 1% (v/v) B27 (50×), […], 3 μM CHIR99021, 5 μM SB431542 and 10 μM Y27632. EM2 used in Example 9 contained the following components: 50% DMEM/F12, 50% Neurobasal™ medium, 1% (v/v) Glutamax, 1% (v/v) B27 (50×), 50 μg/ml ascorbic acid, […] LDN193189, 3 μM CHIR99021, 5 μM SB431542 and 10 μM Y27632. EM3 used in Example 9 contained the following components: 50% DMEM/F12, 50% Neurobasal™ medium, 1% (v/v) Glutamax, 1% (v/v) B27 (50×), 50 μg/mL ascorbic acid, […], 100 ng/ml FGF8b, 3 μM CHIR99021, 5 μM SB431542 and 10 μM Y27632. EM4 used in Example 9 contained the following components: 50% DMEM/F12, 50% Neurobasal™ medium, 1% (v/v) Glutamax, 1% (v/v) B27 (50×), 50 μg/ml ascorbic acid, 0.2 μM LDN193189, 10 ng/ml FGF2, 3 μM CHIR99021, 5 μM SB431542 and 10 μM Y27632. […]

Row | Molecule | cell morphology of expanded imDAPs (Example 2, with vs without 0.2 μM LDN193189, VTN-coated plates, 5 days, FIG. 1B) | imDAP expansion (overall conclusion) (Example 9) | cell number during expansion (Example 9, added to medium with CHIR99021, SB431542 and Y27632, DLL4/VTN-coated, 6 days, FIG. 5B) | attachment and morphology of imDAPs on the coated surface
1 | c1ccc2c(-c3cnn4cc(-c5ccc(N6CCNCC6)cc5)cnc34)ccnc2c1 [LDN193189] | cultured without LDN193189 showed more flattened morphology | had no additional effects on imDAP expansion | had no additional effect on increasing the cell number during expansion | 
2 | DLL4: Notch agonist used as second coating matrix |  |  |  | could not support the attachment of imDAPs
3 | B1 |  |  |  | showed flattened morphology
